Test results as given in paper PMC13266999, “Designing Antibiotics with Inherent Resistance to Efflux as a Strategy to Revive Discovery against Multidrug-Resistant Pathogens” (Journal of Medicinal Chemistry, 2026).
Values after ≈ are worked out from the molar mass of the structure shown. Where two headings read alike, the source gives them in different places.

Experiments:
S. aureus [1] = experiment: MIC (microbroth dilution); type: cell-based, Staphylococcus aureus
Outline: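 Overnight stationary-phase cultures back-diluted and tested by broth microdilution with 2-fold compound series. MIC is lowest concentration with no visible growth, with OD600 also read. Separate runs included polymyxin B nonapeptide at 30 μg/mL final as outer-membrane permeabilizer.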

A. baumannii = experiment: Mutation frequency and agar MIC; type: cell-based; settings: A118
Protocol: (§1) Mutation frequencies were performed on solid media at supra-inhibitory concentrations. First, the agar MIC was performed to account for any issues in solubility of compounds in solid media. Agar plates were prepared with 2-fold dilutions of compound.
(§2) For the mutation frequency assay, bacteria from an overnight culture were grown to mid exponential phase in liquid broth, then 100 μL was spread onto an agar plate containing compound at concentrations above the agar MIC. A Miles-Misra was also conducted on an antibiotic-free agar plate to determine the CFU/mL of the starting population. […] The mutation frequency was calculated by dividing the number of colonies on supra inhibitory con-centration plates by the starting population.

S. aureus [2] = experiment: Mutation frequency and agar MIC; type: cell-based
Protocol: as §1, §2

E. coli = experiment: Mutation frequency and agar MIC; type: cell-based
Protocol: as §1, §2

K. pneumoniae = experiment: MIC (microbroth dilution); type: cell-based, Klebsiella pneumoniae; settings: Klebsiella pneumoniae, read-out: MIC
Protocol: All bacteria were maintained on tryptic soy agar (TSA), except Streptococcus spp., which were maintained on Columbia agar plates containing 5% horse blood. […] Bacteria were grown to stationary phase in liquid culture overnight, with shaking at 200 rpm, before being back diluted to the relevant starting concentration for each assay below. MICs were measured by the microbroth dilution method. […] Absorbance at OD600 was read on a CLARIOstar spectrophotometer (BMG Labtech) and the MIC was defined as the minimum concentration of compound where no visible growth was detected. […] MICs were also performed in the presence of the outer membrane permeator, polymyxin b nonapeptide (PMBN) following the same MIC method but with the following variation. The 2-fold dilution series of compound was prepared as above, then 50 μL of PMBN at a final concentration of 30 μg/mL was added to relevant wells, while 50 μL/well of blank media was added to the remaining wells. Bacteria were then added at 50 μL/well for a starting concentration as above. […] The MICs were read and defined as above. All animal procedures were performed by the contract research organization Pharmacology Discovery Services Taiwan in accordance with the Guide for the Care and Use of Laboratory Animals. The procedures were approved by the Institutional Ethics Committee of Pharmacology Discovery Services Taiwan, Ltd. (approval no. AB127662), in compliance with animal welfare legislation in Taiwan.

Pharmacokinetics = settings: male, ICR (CD-1), mouse
Protocol: Pharmacokinetic studies were performed in male ICR (CD-1) mice obtained from Charles River, UK. […] Blood samples were collected from the caudal vein into anticoagulant-treated capillaries at predetermined time points up to 8 h, with terminal cardiac puncture at 8 h. Plasma samples were stored at −80 °C until analysis. […] A compound-specific LC-MS/MS method was developed for each test article using matrix-matched calibrators following protein precipitation of samples.

Acinetobacter baumannii = experiment: MIC (microbroth dilution); type: cell-based
Outline: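 Overnight stationary-phase bacteria were back-diluted and tested by broth microdilution, Streptococcus spp. in cation-adjusted Mueller Hinton broth plus 2.5% lysed horse blood, other species in tryptic soy broth. Some wells also received polymyxin B nonapeptide at 30 μg/mL final. Growth checked visually with OD600; MIC = minimum concentration showing no growth.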

C[C@H]1COc2c(N3CC[C@@H](Nc4ncccn4)C3)c(F)cc3c(=O)c(C(=O)O)cn1c23 [Compound 46, (S)-9-Fluoro-3-methyl-7-oxo-10-((R)-3-(pyrimidin-2-ylamino)pyrrolidin-1-yl)-2,3-dihydro-7H-[1,4]oxazino[2,3,4-ij]quinoline-6-carboxylic acid]
MIC (S. aureus [1]; NCTC 13616): 0.5 to 1 µg/mL
fold difference in MIC, SA-1199B vs SA-1199 (S. aureus [1]; NorA-overexpressing vs WT): 2 fold
MIC (S. aureus [1]; SA-1199B (NorA-overexpressing)): 0.03 µg/mL (≈ 0.0705 µM)
MIC (S. aureus [1]; Staphylococcus aureus, 1199, + 4% albumin, read-out: MIC): 0.03 to 0.06 µg/mL
MIC (S. aureus [1]; Staphylococcus aureus, 1199b, + 4% albumin, read-out: MIC): 0.06 µg/mL
MIC (S. aureus [1]; Staphylococcus aureus, ATCC9144, ATCC 9144, + 4% albumin, read-out: MIC): 0.03 to 0.06 µg/mL
MIC (S. aureus [1]; Staphylococcus aureus, ATCC9144, ATCC 9144, read-out: MIC): ≤ 0.03 µg/mL
MIC (S. aureus [1]; Staphylococcus aureus, NCTC13277, NCTC 13277, + 4% albumin, read-out: MIC): 1 to 2 µg/mL
MIC (S. aureus [1]; Staphylococcus aureus, NCTC13277, NCTC 13277, read-out: MIC): 1 µg/mL (≈ 2.35 µM)
MIC (S. aureus [1]; Staphylococcus aureus, NCTC13616, NCTC 13616, + 4% albumin, read-out: MIC): 1 to 2 µg/mL
MIC (S. aureus [1]; Staphylococcus aureus, NCTC13616, NCTC 13616, read-out: MIC): 0.5 µg/mL (≈ 1.18 µM)
MIC (S. aureus [1]; Staphylococcus aureus, SA-1199B (NorA-overexpressing)): 0.016 µg/mL (≈ 0.0376 µM)
fold potentiation compared to levofloxacin (S. aureus [1]; fluoroquinolone-resistant NCTC 13616 and NCTC 13277): 16–32 fold
Agar MIC (A. baumannii): 0.03 µg/mL
Agar MIC (S. aureus [2]; ATCC 9144): 0.008 µg/mL
Agar MIC (S. aureus [2]; NCTC 13616): 0.5 µg/mL
Agar MIC (E. coli; NCTC 12241): 0.03 µg/mL
Agar MIC (E. coli; NCTC 12923): 0.12 µg/mL
MIC (K. pneumoniae; M6): 1 to 2 µg/mL (≈ 2.35 to 4.7 µM)
MIC (K. pneumoniae; NCTC13368, NCTC 13368): 8 µg/mL (≈ 18.8 µM)
MIC (K. pneumoniae; TW3): 1 µg/mL (≈ 2.35 µM)
half-life (Pharmacokinetics; in vivo, po, 20 mg/kg): 5.1 h
AUC(0-inf) (Pharmacokinetics; plasma, iv, 5 mg/kg): 15700 ng·h/mL
bioavailability (Pharmacokinetics; plasma, po, 20 mg/kg): 49.3%
MIC (Acinetobacter baumannii; Acinetobacter baumannii, 86, oxa23, read-out: MIC): 8 µg/mL (≈ 18.8 µM)
MIC (Acinetobacter baumannii; Acinetobacter baumannii, 96, oxa23, read-out: MIC): 4 µg/mL (≈ 9.4 µM)
MIC (Acinetobacter baumannii; Acinetobacter baumannii, 113, oxa23, read-out: MIC): 4 µg/mL (≈ 9.4 µM)
MIC (Acinetobacter baumannii; Acinetobacter baumannii, A118, read-out: MIC): ≤ 0.06 µg/mL
MIC (Acinetobacter baumannii; Acinetobacter baumannii, A318, read-out: MIC): 8 µg/mL (≈ 18.8 µM)
MIC (Acinetobacter baumannii; Acinetobacter baumannii, A319, read-out: MIC): 8 µg/mL (≈ 18.8 µM)
MIC (Acinetobacter baumannii; Acinetobacter baumannii, A600 colR, read-out: MIC): 4 µg/mL (≈ 9.4 µM)
MIC (Acinetobacter baumannii; Acinetobacter baumannii, A601 colS, read-out: MIC): ≤ 0.06 µg/mL
MIC (Acinetobacter baumannii; Acinetobacter baumannii, AB01335 adeG183::T26): 4 µg/mL (≈ 9.4 µM)
MIC (Acinetobacter baumannii; Acinetobacter baumannii, AB5075-UW, read-out: MIC): 4 µg/mL (≈ 9.4 µM)
MIC (Acinetobacter baumannii; Acinetobacter baumannii, AB05215 adeS132::T26): 4 µg/mL (≈ 9.4 µM)
MIC (Acinetobacter baumannii; Acinetobacter baumannii, AB05218 adeS141::T26): 4 µg/mL (≈ 9.4 µM)
MIC (Acinetobacter baumannii; Acinetobacter baumannii, AB05219 adeR103::T26): 4 µg/mL (≈ 9.4 µM)
MIC (Acinetobacter baumannii; Acinetobacter baumannii, AB05222 adeR160::T101): 4 µg/mL (≈ 9.4 µM)
MIC (Acinetobacter baumannii; Acinetobacter baumannii, AB05226 adeA165::T26): 4 µg/mL (≈ 9.4 µM)
MIC (Acinetobacter baumannii; Acinetobacter baumannii, AB05227 adeA138::T26): 2 µg/mL (≈ 4.7 µM)
MIC (Acinetobacter baumannii; Acinetobacter baumannii, AB05228 adeB150::T26): 1 µg/mL (≈ 2.35 µM)
MIC (Acinetobacter baumannii; Acinetobacter baumannii, AB05230 adeB181::T26): 1 µg/mL (≈ 2.35 µM)
MIC (Acinetobacter baumannii; Acinetobacter baumannii, ATCC17978, ATCC 17978, read-out: MIC): ≤ 0.25 µg/mL
MIC (Acinetobacter baumannii; Acinetobacter baumannii, BAA1709, BAA-1709, read-out: MIC): 0.125 µg/mL (≈ 0.294 µM)
MIC (Acinetobacter baumannii; Acinetobacter baumannii, BAA1710, BAA-1710 (AYE), read-out: MIC): 4 µg/mL (≈ 9.4 µM)
MIC (Acinetobacter baumannii; Acinetobacter baumannii, BAA2093, BAA-2093, read-out: MIC): 0.03 to 0.06 µg/mL (≈ 0.0705 to 0.141 µM)
MIC (Acinetobacter baumannii; Acinetobacter baumannii, NCTC10303, NCTC 10303, read-out: MIC): ≤ 0.06 µg/mL
MIC (Acinetobacter baumannii; Acinetobacter baumannii, NCTC12156, NCTC 12156, read-out: MIC): 0.125 µg/mL (≈ 0.294 µM)
MIC (Acinetobacter baumannii; Acinetobacter baumannii, NCTC13302, NCTC 13302, oxa24, read-out: MIC): 4 µg/mL (≈ 9.4 µM)
MIC (Acinetobacter baumannii; Acinetobacter baumannii, NCTC13424, NCTC 13424, oxa23, read-out: MIC): > 64 µg/mL
MIC (Acinetobacter baumannii; Acinetobacter baumannii, T strain, read-out: MIC): 8 µg/mL (≈ 18.8 µM)
MIC (Acinetobacter baumannii; Acinetobacter baumannii, UKA1, oxa23, read-out: MIC): 4 µg/mL (≈ 9.4 µM)
MIC (Acinetobacter baumannii; Acinetobacter baumannii, UKA2, Low resistance, read-out: MIC): 8 µg/mL (≈ 18.8 µM)
MIC (Acinetobacter baumannii; Acinetobacter baumannii, UKA9, read-out: MIC): ≤ 0.06 µg/mL
MIC (Acinetobacter baumannii; Acinetobacter baumannii, UKA12, oxa23, read-out: MIC): 2 µg/mL (≈ 4.7 µM)
MIC (Acinetobacter baumannii; Acinetobacter baumannii, UKA13, oxa23, read-out: MIC): 2 µg/mL (≈ 4.7 µM)
MIC (Acinetobacter baumannii; Acinetobacter baumannii, UKA15, oxa23, read-out: MIC): 1 µg/mL (≈ 2.35 µM)
MIC (Acinetobacter baumannii; Acinetobacter baumannii, UKA19, read-out: MIC): 0.25 µg/mL (≈ 0.588 µM)
MIC (Acinetobacter baumannii; Acinetobacter baumannii, W1, read-out: MIC): 4 µg/mL (≈ 9.4 µM)
